In this test the test system is leukotrienes. The test can be described thus: leukotriene antagonist properties (test not specified; standard tests). To be noted: in words. As for the experimental part:
Using this procedure, tracheal tissue strips are set up in groups of eight, four being used as time/vehicle controls and four for each test compound. All of the strips are exposed to 8×10^-9 M leukotriene E4 (LTE4) following the 50 minute equilibration period, and the response recorded. This concentration of LTE4 is that which produces a contraction equal to about 70-80% of the maximal effect of the agonist in this tissue. The LTE4 is washed out for 40-45 minutes and the procedure repeated twice to ensure that reproducible responses are being obtained with LTE4. Leukotriene C4 (LTC4) or D4 (LTD4), at a concentration of 8×10^-9 M, may be substituted for LTE4 in the same procedure.
Once tissue reproducibility has been established, test compounds are added to four baths following the 40 to 45 minute washout period. After a 10 minute incubation with test compound or vehicle, 8×10^-9 M LTE4, LTD4 or LTC4 is added and the response recorded. The percentage inhibition by the test compound or the percentage change in vehicle controls is calculated, for each tissue, according to the following equation: % inhibition=100 multiplied by (mg. tension increase of preceding response minus mg. tension increase in presence of compound) […]) divided by mg. tension increase of preceding response. The mean percentage change for vehicle controls and test compound are calculated and evaluated for significant differences by Students' t-test for unpaired data. Tissues exposed to test compounds were retested for responsiveness to LTE4, LTD4 or LTC4 following a 25 minute washout period. If tissue responsiveness was equal to responsiveness preceding exposure to the test compound additional studies were conducted. If responsiveness was not restored by the washing procedure, the tissues were discarded. The cyclooxygenase inhibitor, indomethacin, is present at 5×10^-6 M in all the determinations.
In general, compounds of formula I produce a significant increase in the time of onset of leukotriene initiated breathing changes following either oral, intravenous or intra peritoneal administration at a dose of 100 mg./kg., or much less, without any indication of untoward side-effects at several multiples of the minimum effective dose. By way of example, the compounds described in Examples 262, 158 and 168 produced significant increases in time required for onset of leukotriene D4 initiated disponoea following oral dosing at about 5 mg./kg., 43 mg./kg. and 50 mg./kg., respectively, 1-2 hours prior to leukotriene challenge.
For the compound `CCCCOC(=O)Nc1ccc2cnn(Cc3ccc(-c4nnn[nH]4)cc3OC)c2c1` [Example 161, 6-(butyloxycarbonyl)amino-1-(2-methoxy-4-[1(H)-tetrazol-5-yl]benzyl)indazole], the leukotriene antagonist properties entry is listed as “potent leukotriene antagonist properties”.

As to `COc1cc(C(=O)O)ccc1Cn1ccc2ccc(NC(=O)CC3CCCCC3)cc21` [Example 209], the leukotriene antagonist properties result is on record as “potent leukotriene antagonist properties”.

With `COc1cc(C(=O)O)ccc1Cn1ccc2ccc(NC(=O)CC3CCCC3)cc21` [Example 114], the leukotriene antagonist properties entry is on record as “potent leukotriene antagonist properties”.

On to `CCC(C(=O)Nc1ccc2cnn(Cc3ccc(C(=O)NS(=O)(=O)c4ccccc4)cc3OC)c2c1)c1ccccc1` (stereo not drawn) [Example 261, N-(4-[6-(2-phenylbutanamido)indazol-1-ylmethyl]-3-methoxybenzoyl)benzenesulphonamide], for which the leukotriene antagonist properties result is “potent leukotriene antagonist properties”.

Take `COc1cc(C(=O)O)ccc1Cn1cc(Cl)c2ccc(NC(=O)OC3CCCC3)cc21` [Example 221]: the leukotriene antagonist properties entry is “potent leukotriene antagonist properties”.

Take `COc1cc(-c2nnn[nH]2)ccc1Cn1ncc2ccc(NC(=O)OC3CCCC3)cc21` [Example 162, 6-(cyclopentyloxycarbonyl)amino-1-(2-methoxy-4-[1(H)-tetrazole-5-yl]benzyl)indazole]: the leukotriene antagonist properties result is recorded as “potent leukotriene antagonist properties”.

Turning to `COc1cc(C(=O)NS(=O)(=O)c2ccccc2N)ccc1Cn1ccc2ccc(NC(=O)CC3CCCC3)cc21` [Example 266], the leukotriene antagonist properties entry was “potent leukotriene antagonist properties”.

For `COc1cc(C(=O)NS(=O)(=O)c2ccccc2)ccc1Cn1cc(C(C)=O)c2ccc(NC(=O)OC3CCCC3)cc21` [Example 277, N-(4-[3-acetyl-6-(cyclopentyloxycarbonyl)aminoindol-1-ylmethyl]-3-methoxybenzoyl)benzenesulphonamide], the leukotriene antagonist properties result is recorded as “potent leukotriene antagonist properties”.

Turning to `COc1cc(C(=O)NS(=O)(=O)c2ccccc2)ccc1Cn1ncc2ccc(NC(=O)OC3CCCC3)cc21` [Example 262], the leukotriene antagonist properties result is given as “potent leukotriene antagonist properties”.

On to `COc1cc(C(=O)NS(=O)(=O)c2ccccc2)ccc1Cn1ncc2ccc(NC(=O)CC3CCCC3)cc21` [Example 263, N-(4-[6-(2-cyclopentylacetamido)indazol-1-ylmethyl]-3-methoxybenzoyl)benzenesulphonamide], for which the leukotriene antagonist properties entry was “potent leukotriene antagonist properties”.

Take `COc1cc(C(=O)NS(=O)(=O)c2ccccc2)ccc1Cn1cc(Cl)c2ccc(NC(=O)OC3CCCC3)cc21` [Example 279]: the leukotriene antagonist properties result is given as “potent leukotriene antagonist properties”.

For the compound `COc1cc(C(=O)NS(=O)(=O)c2ccccc2)ccc1CN1CCc2ccc(NC(=O)CC3CCCC3)cc21` [Example 284, N-(4-[6-(2-cyclopentylacetamido)indolin-1-ylmethyl]-3-methoxybenzoyl)benzenesulphonamide], the leukotriene antagonist properties result is on record as “potent leukotriene antagonist properties”.

In the case of `CCCCC(CC)C(=O)Nc1ccc2cnn(Cc3ccc(-c4nnn[nH]4)cc3OC)c2c1` (stereo not drawn) [Example 163, 6-(2-ethylhexanamido)-1-(2-methoxy-4-[2(H)-tetrazol-5-yl]benzyl)indazole], the leukotriene antagonist properties entry is recorded as “potent leukotriene antagonist properties”.

For `COc1cc(C(=O)NS(=O)(=O)c2ccccc2)ccc1Cn1ccc2ccc(NC(=O)C3CCCC3)cc21` [Example 278], the leukotriene antagonist properties entry is “potent leukotriene antagonist properties”.

For the compound `COc1cc(C(=O)O)ccc1Cn1ccc2ccc(NC(=O)OC3CCC3)cc21` [Example 122], the leukotriene antagonist properties entry was “potent leukotriene antagonist properties”.

Regarding `CCCCC(CC)C(=O)Nc1ccc2c(C=CC(=O)OC)cn(Cc3ccc(C(=O)O)cc3OC)c2c1` (stereo not drawn) [Example 241, 4-(3-[2-methoxycarbonylvinyl]-6-[2-ethylhexanamido]indol-1-ylmethyl)-3-methoxybenzoic acid], the leukotriene antagonist properties entry is on record as “potent leukotriene antagonist properties”.

On to `CCCCOC(=O)Nc1ccc2ccn(Cc3ccc(-c4nnn[nH]4)cc3OC)c2c1` [Example 157, 6-(butoxycarbonyl)amino-1-(2-methoxy-4-[1(H)-tetrazol-5-yl]benzyl)indole], for which the leukotriene antagonist properties entry is on record as “potent leukotriene antagonist properties”.

Turning to `COc1cc(C(=O)NS(=O)(=O)c2ccccc2C)ccc1Cn1ccc2ccc(NC(=O)CC3CCCC3)cc21` [Example 265], the leukotriene antagonist properties entry was “potent leukotriene antagonist properties”.

With `COc1cc(C(=O)O)ccc1Cn1cc(C(C)=O)c2ccc(NC(=O)OC3CCCC3)cc21` [Example 222], the leukotriene antagonist properties result is recorded as “potent leukotriene antagonist properties”.

As to `COc1cc(C(=O)O)ccc1Cn1ccc2ccc(NC(=O)OC3CCCC3)cc21` [Example 176, 4-[6-(cyclopentyloxycarbonyl)aminoindol-1-ylmethyl]-3-methoxybenzoic acid], the leukotriene antagonist properties result is reported as “potent leukotriene antagonist properties”.

For `COc1cc(C(=O)NS(=O)(=O)c2ccccc2C)ccc1Cn1ncc2ccc(NC(=O)CC3CCCC3)cc21` [Example 264], the leukotriene antagonist properties entry is on record as “potent leukotriene antagonist properties”.

As to `COc1cc(C(=O)O)ccc1Cn1cc(Cl)c2ccc(NC(=O)CC3CCCC3)cc21` [Example 224], the leukotriene antagonist properties result is “potent leukotriene antagonist properties”.

On to `COc1cc(C(=O)NS(=O)(=O)c2ccccc2)ccc1Cn1ccc2ccc(NC(=O)OC3CCCC3)cc21` [Example 256, N-(4-[6-(cyclopentyloxycarbonyl)-aminoindol-1-ylmethyl]-3-methoxybenzoyl)benzenesulphonamide], for which the leukotriene antagonist properties result is listed as “potent leukotriene antagonist properties”.

Take `COc1cc(C(=O)O)ccc1Cn1ncc2ccc(NC(=O)OC3CCCC3)cc21` [Example 170]: the leukotriene antagonist properties result was “potent leukotriene antagonist properties”.

In the case of `COc1cc(C(=O)NS(=O)(=O)c2ccccc2)ccc1Cn1ccc2ccc(NC(=O)CC3CCCC3)cc21` [Example 280, N-(4-[6-(2-cyclopentylacetamido)indol-1-ylmethyl]-3-methoxybenzoyl)benzenesulphonamide], the leukotriene antagonist properties entry was “potent leukotriene antagonist properties”.

For the compound `CCCCOC(=O)Nc1ccc2cnn(Cc3ccc(C(=O)NS(=O)(=O)c4ccccc4)cc3OC)c2c1` [Example 294], the leukotriene antagonist properties result is reported as “potent leukotriene antagonist properties”.

Regarding `COc1cc(-c2nnn[nH]2)ccc1Cn1ccc2ccc(NC(=O)OC3CCCC3)cc21` [Example 158, 6-(cyclopentyloxycarbonyl)amino-1-(2-methoxy-4-[1(H)tetrazol-5-yl]benzyl)indole], the leukotriene antagonist properties result was “potent leukotriene antagonist properties”.

The values are drawn from patent US5234942A, “Heterocyclic amides and leucotriene antagonistic use thereof” (ICI Americas Inc., priority 1984, dated 1993).
